Results on 74 molecules are retold here after PubChem BioAssay AID179 (DTP/NCI, 2004).

Calls of active or inactive are those of the source.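 Rule for the calls: active = compounds giving half or more protection of infected cells from virus-caused growth loss, again on retest; inactive = the rest.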 Where a SMILES comes first, the peptide text is derived from it. The star is where a group is joined. Cbz = O=C(OCc1ccccc1)*

For the assay, the system named is CEM cells HIV-1 protection, formazan growth assay. Briefly: NCI AIDS Antiviral Assay. To be noted: for IC50: measured here: growth of uninfected CEM cells. A digest of the protocol: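 Five concentrations of each compound were applied to infected and uninfected human CEM cells. Protection from HIV-1 was judged from growth measured with a soluble formazan assay.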

For orientation: EC50 means the concentration needed to bring the measured effect to its halfway point. For orientation: IC50 means the concentration needed to halve the response being measured. A low value points to greater potency. As to `O=S1(=O)OCCOS(=O)(=O)C1Cc1ccccc1`, the EC50 is greater than 447 µM and the concentration for half-maximal inhibition (IC50) is 50.1 µM.

Regarding `Cc1ccsc1/C=N/Nc1ccc2ccccc2n1`, the EC50 was greater than 200 µM and the IC50 turned out to be 18.6 µM.

On to `CN1CN(c2ccccc2)C2(CCN(Cc3csc4ccccc34)CC2)C1=O`, for which the EC50 is greater than 200 µM and the 50% inhibitory concentration (IC50) came out at 66.1 µM.

Take `O=C1/C(=C/c2ccc(OCc3ccccc3)cc2)CCC/C1=C\c1ccc(OCc2ccccc2)cc1`: the EC50 was greater than 2.95 µM and the IC50 is greater than 2.95 µM.

For the molecule `C/C(CC(=O)Nc1ccccc1)=N\NC(N)=S`, the EC50 is greater than 1000 µM and the IC50 was found to be 170 µM.

For the molecule `O=C1SC(=NC2CCCCC2)N(C2CCCCC2)/C1=C1\C(=O)SC(=NC2CCCCC2)N1C1CCCCC1`, the EC50 was greater than 26.9 µM and the IC50 is greater than 26.9 µM.

Turning to `COC(=O)C(C(=O)Cc1ccccc1[N+](=O)[O-])C(=O)OC`, the EC50 is greater than 251 µM and the half-maximal inhibitory concentration (IC50) was found to be 102 µM.

`O=C1C(=Cc2ccc(O)cc2)N=C(c2ccccc2)N1n1c(-c2ccccc2)nc2ccccc2c1=O`: the EC50 is greater than 200 µM and the IC50 stood at 77.6 µM.

Take `O/N=C1/C(=C/c2ccc(Oc3ccccc3)cc2)CCCC1C(NO)c1ccc(Oc2ccccc2)cc1` (configuration not stated): the EC50 is greater than 10.2 µM and the IC50 is greater than 10.2 µM.

With `COC(=O)[C@]1(C)CCC[C@]2(C)[C@H]3CC4OO[C@@]3(CC[C@H]21)[C@H]1O[C@@]41C(C)C`, the result was inactive.

Regarding `Nc1nc(N)c2nnsc2n1`, the EC50 is greater than 200 µM and the IC50 was greater than 200 µM.

Regarding `CCCCCCCCCCCCOCCOCCOCCOCCOCCOCC(=O)NC(Cc1ccccc1)C(=O)Oc1ccc([N+](=O)[O-])cc1` (configuration not stated), the EC50 was greater than 200 µM and the IC50 was found to be 17.8 µM.

As for `O=C(O)c1nc2ccc(C(F)(F)F)cc2nc1NCc1ccc(Cl)c(Cl)c1`, the EC50 was greater than 200 µM and the IC50 came out at 19.1 µM.

For the molecule `C=CCCC(=O)CC(=O)OC`, the EC50 is greater than 1580 µM and the concentration for half-maximal inhibition (IC50) was greater than 1580 µM.

With `O=c1ccc(=O)n(CCc2ccccn2)[nH]1`, the EC50 was greater than 200 µM and the 50% inhibitory concentration (IC50) was greater than 200 µM.

Turning to `CN(C)/C=N/NC(=O)C(O)(c1ccccc1)c1ccccc1`, the EC50 is greater than 200 µM and the IC50 was greater than 200 µM.

Consider `CC1(C)/C(=C/N=O)N(O)C(C)(C)N1O`, for which the EC50 is greater than 200 µM and the IC50 was 120 µM.

Take `COC(=O)CC1C(=O)OC23CCC1C2(C)CCC1C3CCC2CC(OC(C)=O)CCC21C` (configuration not stated): the outcome was inactive.

Turning to `COC(=O)C1=C(C(=O)OC)P2(C)(C)SC(=S)N2C1(c1ccccc1)c1ccccc1`, the EC50 is greater than 200 µM and the half-inhibitory concentration (IC50) was greater than 200 µM.

Regarding `O=c1cn[nH]c2ccc(Br)cc12`, the EC50 is greater than 95.5 µM and the IC50 is greater than 95.5 µM.

With `Cc1ccc(S(=O)(=O)N2/C(=C/c3ccccc3)C(=O)c3ccccc3-c3ccccc32)cc1`, the EC50 was greater than 11.5 µM and the concentration for half-maximal inhibition (IC50) is greater than 11.5 µM.

Consider `N#Cc1cccc(/C=C2\CCc3ccccc3C2=O)c1`, for which the EC50 is greater than 28.2 µM and the IC50 is 20.9 µM.

For the molecule `Cc1ccc(-n2c3nc(=O)n(C)c(=O)c-3cc3c(OCc4ccccc4)cccc32)cc1`, the EC50 was greater than 19.5 µM and the IC50 is greater than 19.5 µM.

In the case of `CCCCCCCCCCCCCCCC=C(c1cc(Br)c(OC)c(C(=O)OC)c1)c1cc(Br)c(OC)c(C(=O)OC)c1`, the EC50 was greater than 27.5 µM and the 50% inhibitory concentration (IC50) is greater than 27.5 µM.

As for `CC(=O)N1CC(=O)N2C(=O)/C(=C/c3ccc(Cl)cc3)N=C12`, the EC50 was greater than 63.1 µM and the IC50 was 6.92 µM.

In the case of `COc1ccc2c(c1)CC1=C(O2)c2ccc(OC)cc2OC1`, the EC50 was greater than 200 µM and the half-maximal inhibitory concentration (IC50) stood at 10.2 µM.

Turning to `Cn1c(=S)[nH]c(N)c(Cc2ccccc2)c1=O`, the EC50 is greater than 200 µM and the IC50 came out at 64.6 µM.

In the case of `O=C1C2CC=C3CCS(=O)C3C2C(=O)N1c1ccccc1` (configuration not stated), the EC50 is greater than 417 µM and the half-maximal inhibitory concentration (IC50) was greater than 417 µM.

As to `C=C1C(=O)OC2/C=C(\C)C3OC3/C=C(/C(=O)OC)C(O)C(OC(=O)C3(C)OC3C)C12` (configuration not stated), the EC50 is greater than 120 µM and the 50% inhibitory concentration (IC50) came to 0.302 µM.

Consider `CC(=O)Nc1oc(C)c(C)c1S(=O)(=O)c1ccc(Cl)cc1`, for which the EC50 was greater than 200 µM and the IC50 was 107 µM.

As to `COc1ccccc1/C=c1\[nH]c(=O)/c(=C/c2ccccc2OC)[nH]c1=O`, the EC50 was greater than 28.2 µM and the IC50 was greater than 28.2 µM.

On to `N#CC(C#N)c1ccc(C(=O)N2CCC[C@H]2CO)cc1`, for which the result was inactive.

For the molecule `O=C1NC(=O)C2C(=O)NC(=O)C1C2(c1ccccc1)c1ccc(Cl)cc1` (configuration not stated), the EC50 is greater than 676 µM and the 50% inhibitory concentration (IC50) is 468 µM.

`NC1c2ccccc2Nc2ccccc21`: the EC50 was greater than 182 µM and the concentration for half-maximal inhibition (IC50) amounted to 1.29 µM.

`C[N+]1(C)C/C(=C\c2ccncc2)C(=O)/C(=C/c2ccncc2)C1`: the result was inactive.

Regarding `Cc1cccc(CC(C)(C)C)c1NC(=O)C(=O)C(C(=O)c1ccc2ccccc2c1)C1OC(=O)c2ccccc21` (configuration not stated), the EC50 is greater than 126 µM and the IC50 stood at 56.2 µM.

Take `CC(=O)CC(=O)/C=C/c1cccs1`: the EC50 is greater than 257 µM and the IC50 was 178 µM.

`CC12CCC(CC(=O)/C1=C(/Br)I)C2(C)C` (configuration not stated): the EC50 was greater than 200 µM and the IC50 was found to be 36.3 µM.

For `CCC(C)CC(C)CC(C)/C=C(\C)C1=C(C)CC(C)(O)O1` (configuration not stated), the outcome was inactive.

Take `CC1CCCC/C1=N/NS(=O)(=O)c1ccc(N)cc1` (configuration not stated): the EC50 was greater than 240 µM and the half-maximal inhibitory concentration (IC50) was greater than 240 µM.

`CCCCN1CC(=O)N2CCCC(c3ccccc3)N2C(=O)C1` (configuration not stated): the EC50 was greater than 794 µM and the IC50 was 347 µM.

Turning to `CCN(CC)CCN(CC)CC(=O)Nc1ccccc1Cl`, the EC50 was greater than 200 µM and the concentration for half-maximal inhibition (IC50) was greater than 200 µM.

On to `Cc1ccc(-c2cc(=S)n(-c3ccccc3)c3nc(=S)n(-c4ccccc4)c(N)c23)cc1`, for which the EC50 was greater than 200 µM and the IC50 was found to be 138 µM.

Regarding `N#CC1(C#N)C(c2ccccc2)C=CC12OCCCO2` (configuration not stated), the outcome was inactive.

Regarding `O=C1CN(CCCN2CCOCC2)CC(=O)N2CCCCN12`, the EC50 is greater than 200 µM and the half-maximal inhibitory concentration (IC50) is greater than 200 µM.

With `Cc1nnc2c3nnc(C)n3c3ccccc3n12`, the result was inactive.

Consider `C=CCN(CC=C)CC(C(C)=O)C(c1ccccc1)c1c(O)c2ccccc2oc1=O` (configuration not stated), for which the EC50 was greater than 1.15 µM and the 50% inhibitory concentration (IC50) was greater than 1.15 µM.

With `CCOC(=O)CCC(NC(=O)CNC(=O)CNC(=O)C(CCC(=O)OCC)NC(=O)C(CCC(=O)OCC)NC(=O)C(CCC(=O)OCC)NC(=O)OCc1ccccc1)C(=O)NC(CCC(=O)OCC)C(=O)NC(CCC(=O)OCC)C(=O)OCC` (configuration not stated) (Cbz-E(OEt)E(OEt)E(OEt)GGE(OEt)E(OEt)E(OEt)-OEt; configuration not given here), the EC50 was greater than 200 µM and the half-maximal inhibitory concentration (IC50) was greater than 200 µM.

Turning to `O=[N+]([O-])c1ccc(-c2cnc3ccccn23)cc1`, the EC50 is greater than 105 µM and the half-maximal inhibitory concentration (IC50) is greater than 105 µM.

Regarding `Cc1ccc(S(=O)(=O)OCC/C(=C\[Si](C)(C)C)c2ccccc2)cc1`, the result was inactive.

Consider `CC(C)(C)n1c(=O)[nH]n(C2NN=Cc3cccc4cccc2c34)c1=O` (configuration not stated), for which the EC50 is greater than 200 µM and the concentration for half-maximal inhibition (IC50) stood at 24 µM.

For `O=C(O)C1(C(=O)O)CC1(C(=O)O)C(=O)O`, the outcome was inactive.

For `O=C(C=P(c1ccccc1)(c1ccccc1)c1ccccc1)C1(C(=O)C=P(c2ccccc2)(c2ccccc2)c2ccccc2)CC1`, the EC50 was greater than 200 µM and the concentration for half-maximal inhibition (IC50) worked out at 9.55 µM.

Regarding `CC1(C)OC(=O)C(=C=[N-])/C1=C\[n+]1ccccc1`, the EC50 is greater than 417 µM and the IC50 was greater than 417 µM.

`Nc1cccc2cc(Cl)cnc12`: the EC50 is greater than 200 µM and the 50% inhibitory concentration (IC50) is greater than 200 µM.

As to `COc1cc(/C=C/C(=O)CC(=O)/C=C/c2cc(OC)c(O)c(OC)c2)cc(OC)c1O`, the EC50 is greater than 200 µM and the half-inhibitory concentration (IC50) was found to be 12.6 µM.

For `Cc1ccc(F)cc1NC(=O)O/N=C(\Cl)C(C)C`, the EC50 was greater than 20 µM and the half-maximal inhibitory concentration (IC50) came to 3.8 µM.

For `CC(C)(C)c1cc(-c2cc(C(C)(C)C)n(-c3ccccc3)n2)nn1-c1ccccc1`, the EC50 is greater than 200 µM and the half-maximal inhibitory concentration (IC50) was 89.1 µM.

Turning to `Cn1nc(-c2ccccc2)c2c(-c3ccccc3)c3cc(Cl)ccc3nc21`, the EC50 is greater than 100 µM and the concentration for half-maximal inhibition (IC50) was greater than 100 µM.

Consider `C1=CC2C=CC(C=C1)P2c1ccccc1` (configuration not stated), for which the result was inactive.

Regarding `Cc1cccc(N=Nc2c(C)nn(C(=O)c3ccccc3)c2C)c1`, the result was inactive.

For `COC(=O)C1ON(C(=O)c2ccccc2)C(C)C2OC12` (configuration not stated), the EC50 was greater than 324 µM and the half-inhibitory concentration (IC50) is greater than 324 µM.

`NCCCCNc1ccc2c(=O)[nH][nH]c(=O)c2c1`: the outcome was inactive.

For `O=P(O)(O)C=C=C1CCCCC1`, the EC50 was greater than 200 µM and the concentration for half-maximal inhibition (IC50) is greater than 200 µM.

With `[N-]=[N+]=N[C@H]1C[C@@H](CO)O[C@H]1n1cnc2c(N)ncnc21`, the outcome was inactive.

`COC(=O)c1ccccc1CC1Cc2cccc(C)c2C1=O` (configuration not stated): the EC50 is greater than 200 µM and the concentration for half-maximal inhibition (IC50) was 53.7 µM.

Turning to `CN/N=C(/C=C/c1ccccc1)C(C)C`, the EC50 is greater than 200 µM and the IC50 is greater than 200 µM.

In the case of `O=C(/C=C/NC(=O)OCc1ccccc1)OCc1ccccc1`, the EC50 was greater than 200 µM and the half-inhibitory concentration (IC50) is greater than 200 µM.

Consider `Cc1cc2c(cc1C)C(=O)C1(C2)Cc2c(ccc(C)c2C)C1=O` (configuration not stated), for which the EC50 is greater than 100 µM and the IC50 is greater than 100 µM.

In the case of `O=Nc1ccc(Br)cc1`, the outcome was inactive.

Consider `NCCNC(=O)CCC(CN(CC(=O)O)CC(=O)O)N(CC(=O)O)CC(=O)O` (configuration not stated), for which the EC50 is greater than 63.1 µM and the IC50 was greater than 63.1 µM.

Regarding `O=C(O)C1CC2C3C=CC(C3)C2C1` (configuration not stated) (tested in a mixture with another compound), the EC50 is greater than 64.6 µM and the IC50 came out at 45.7 µM.

As for `N.N.N.N.O=C([O-])C(Cl)Cl.O=C([O-])C(Cl)Cl.[Co+3].[O-][Cl+3]([O-])([O-])[O-]`, the outcome was inactive.

Regarding `C1CN(c2nnc(N3CCC3)nn2)C1`, the result was inactive.
